Assay results reported in PubChem BioAssay AID330 (DTP/NCI, 2004).
Where “and” joins values, the source holds several entries; their conditions need not be identical. Equal entries are not always repeated. Toxic doses and inconclusive results are not listed.

Test system: P388 leukemia ip, CD2F1 mice, survival T/C
Assay: NCI In Vivo Anticancer Drug Screen. Data for tumor model P388 Leukemia (intraperitoneal) in CD2F1 (CDF1) mice
Settings: endpoint: median survival time, higher = longer survival
In short: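 Mice carrying the transplanted tumor received test compound or vehicle. Survival was recorded in each group, and the value is the treated-group measurement divided by that of the vehicle-treated control group.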

[1] = dose: 50.0 mg/kg/injection, schedule: Q01DX005 (ip), vehicle: saline with Tween-80
[2] = dose: 100.0 mg/kg/injection, schedule: Q01DX005 (ip), vehicle: saline with Tween-80
[3] = dose: 200.0 mg/kg/injection, schedule: Q01DX005 (ip), vehicle: saline with Tween-80
[4] = dose: 60.0 mg/kg/injection, schedule: Q01DX005 (ip), vehicle: saline with Tween-80
[5] = dose: 120.0 mg/kg/injection, schedule: Q01DX005 (ip), vehicle: saline with Tween-80
[6] = dose: 240.0 mg/kg/injection, schedule: Q01DX005 (ip), vehicle: saline with Tween-80
[7] = dose: 100.0 mg/kg/injection, schedule: Q04DX003 (ip), vehicle: saline with Tween-80
[8] = dose: 200.0 mg/kg/injection, schedule: Q04DX003 (ip), vehicle: saline with Tween-80
[9] = dose: 400.0 mg/kg/injection, schedule: Q04DX003 (ip), vehicle: saline with Tween-80
[10] = dose: 50.0 mg/kg/injection, schedule: Q01DX009 (ip), vehicle: saline with Tween-80
[11] = dose: 12.5 mg/kg/injection, schedule: Q01DX005 (ip), vehicle: saline
[12] = dose: 25.0 mg/kg/injection, schedule: Q01DX005 (ip), vehicle: saline
[13] = dose: 50.0 mg/kg/injection, schedule: Q01DX005 (ip), vehicle: Klucel (hydroxypropylcellulose) (HPC)
[14] = dose: 100.0 mg/kg/injection, schedule: Q01DX005 (ip), vehicle: Klucel (hydroxypropylcellulose) (HPC)
[15] = dose: 200.0 mg/kg/injection, schedule: Q01DX005 (ip), vehicle: Klucel (hydroxypropylcellulose) (HPC)

Question: For `c1ccc(-c2csc3nc(N4CCCCC4)cn23)cc1`, which T/C (dose: 100.0 mg/kg/injection, schedule: Q04DX003 (ip), vehicle: saline + Tween-80 + alcohol) is on record?
Answer: 107 % of control

Question: What about the T/C (dose: 200.0 mg/kg/injection, schedule: Q04DX003 (ip), vehicle: saline + Tween-80 + alcohol) of the same molecule?
Answer: 107 % of control

Question: What does the source list for `FC(F)(F)COP(c1ccccc1)c1ccccc1`?
Answer: T/C [1]: 113 % of control; T/C [2]: 111 % of control; T/C [3]: 114 % of control

Question: For `CCOC(=O)Nc1c(CC(C)O)n[nH]c1C` (configuration not stated), which T/C [1] is on record?
Answer: 110 % of control

Question: What about the T/C [2] of the same molecule?
Answer: 100 % of control

Question: What about the T/C [3] of the same molecule?
Answer: 96 % of control

Question: How did the T/C (dose: 50.0 mg/kg/injection, schedule: Q01DX005 (ip), vehicle: acetone) turn out when `CC1=NS(C)(=O)=c2ccc(C)cc2=N1` (configuration not stated) was run?
Answer: 100 % of control

Question: What about the T/C (dose: 100.0 mg/kg/injection, schedule: Q01DX005 (ip), vehicle: acetone) of the same molecule?
Answer: 100 % of control

Question: What about the T/C (dose: 200.0 mg/kg/injection, schedule: Q01DX005 (ip), vehicle: acetone) of the same molecule?
Answer: 100 % of control

Question: Which T/C [4] does the source give for `CCOC(=O)c1ccc(NC(=O)Oc2ccc3c(C)cc(=O)oc3c2)cc1` here?
Answer: 98 % of control

Question: And the T/C [5]?
Answer: 98 % of control

Question: What about the T/C [6] of the same molecule?
Answer: 103 % of control

Question: What does the source list for `COc1ccccc1NC(=O)C1=C(C)NC(C)=C(C(=O)Nc2ccccc2C)C1c1ccccc1` (configuration not stated)?
Answer: T/C [4]: 100 % of control; T/C [5]: 104 % of control; T/C [6]: 89 % of control

Question: Which results are given for `O=C1NC(=O)C(c2ccccc2)(c2ccc(O)cc2)N1` (configuration not stated)?
Answer: T/C [7]: 115 % of control; T/C [8]: 110 % of control; T/C [9]: 115 % of control

Question: `Cc1ccc(S(=O)(=O)OCCN(CCOS(=O)(=O)c2ccc(C)cc2)c2ccc(N=O)cc2)cc1` was tested. Which T/C (dose: 25.0 mg/kg/injection, schedule: Q04DX003 (ip), vehicle: saline with Tween-80) did it give?
Answer: 163 % of control

Question: What about the T/C (dose: 50.0 mg/kg/injection, schedule: Q04DX003 (ip), vehicle: saline with Tween-80) of the same molecule?
Answer: 168 % of control

Question: And the T/C (dose: 100.0 mg/kg/injection, schedule: Q04DX003 (ip), vehicle: saline sonified)?
Answer: 122 % of control

Question: What about the T/C [7] of the same molecule?
Answer: 177 % of control

Question: Which T/C [4] does the source give for `COc1ccc(C2CC(=O)NC2=O)cc1OC` (configuration not stated) here?
Answer: 96 % of control

Question: What about the T/C [5] of the same molecule?
Answer: 92 % of control

Question: And the T/C [6]?
Answer: 97 % of control

Question: Which T/C [4] does the source give for `S=c1c(-c2ccccc2)cnc2sccn12` here?
Answer: 100 % of control

Question: What about the T/C [5] of the same molecule?
Answer: 96 % of control

Question: What about the T/C [6] of the same molecule?
Answer: 98 % of control

Question: Which results are given for `COc1ccc(CNSC(c2ccccc2)(c2ccccc2)c2ccccc2)cc1`?
Answer: T/C [1]: 98 % of control; T/C [2]: 101 % of control; T/C [3]: 97 % of control

Question: `O=C(Nc1ccc(Cl)cc1)Nc1nnc2nc(C(C(=O)c3ccc(Cl)cc3Cl)c3nc4nnc(NC(=O)Nc5ccc(Cl)cc5)n4[nH]c3=O)c(=O)[nH]n12` was tested. Which T/C [4] did it give?
Answer: 103 % of control

Question: What about the T/C [5] of the same molecule?
Answer: 101 % of control

Question: What about the T/C [6] of the same molecule?
Answer: 101 % of control

Question: `CC(C)=CCC/C(C)=C/COC(=O)C=[N+]=[N-]` was tested. Which T/C [10] did it give?
Answer: 114 % of control and 91 % of control

Question: And the T/C (dose: 100.0 mg/kg/injection, schedule: Q01DX009 (ip), vehicle: saline with Tween-80)?
Answer: 122 % of control

Question: What about the T/C (dose: 200.0 mg/kg/injection, schedule: Q01DX009 (ip), vehicle: saline with Tween-80) of the same molecule?
Answer: 117 % of control and 122 % of control

Question: And the T/C (dose: 400.0 mg/kg/injection, schedule: Q01DX009 (ip), vehicle: saline with Tween-80)?
Answer: 95 % of control

Question: Which T/C [11] does the source give for `CCCCN(CCCC)CC(O)c1ccc(F)c2ccccc12` (configuration not stated) here?
Answer: 96 % of control

Question: And the T/C [12]?
Answer: 105 % of control

Question: And the T/C [1]?
Answer: 113 % of control

Question: What about the T/C (dose: 50.0 mg/kg/injection, schedule: Q01DX005 (ip), vehicle: saline) of the same molecule?
Answer: 99 % of control

Question: And the T/C [2]?
Answer: 97 % of control

Question: How did the T/C [1] turn out when `COc1ccc(Cc2cc3c(cc2OC(C)=O)OCO3)cc1` was run?
Answer: 100 % of control

Question: And the T/C [2]?
Answer: 100 % of control

Question: And the T/C [3]?
Answer: 99 % of control

Question: `CCCC[n+]1c(/C=C\c2c(OC)cc(OC)cc2OC)ccc2ccccc21` was tested. Which T/C (dose: 0.19 mg/kg/injection, schedule: Q01DX009 (ip), vehicle: Klucel (hydroxypropylcellulose) (HPC)) did it give?
Answer: 115 % of control

Question: What about the T/C (dose: 0.39 mg/kg/injection, schedule: Q01DX009 (ip), vehicle: Klucel (hydroxypropylcellulose) (HPC)) of the same molecule?
Answer: 115 % of control and 122 % of control

Question: And the T/C (dose: 0.78 mg/kg/injection, schedule: Q01DX009 (ip), vehicle: Klucel (hydroxypropylcellulose) (HPC))?
Answer: 105 % of control

Question: Which results are given for `CC1CC(C)(O)CC(C(O)CC2CC(=O)NC(=O)C2)C1=O` (configuration not stated)?
Answer: T/C (dose: 77.8 micrograms/kg/injection, schedule: Q01DX009 (ip), vehicle: saline): 123 % of control; T/C (dose: 216.0 micrograms/kg/injection, schedule: Q01DX009 (ip), vehicle: saline): 152 % of control and 162 % of control; T/C (dose: 360.0 micrograms/kg/injection, schedule: Q01DX009 (ip), vehicle: saline): 165 % of control; T/C (dose: 467.0 micrograms/kg/injection, schedule: Q04DX003 (ip), vehicle: saline): 120 % of control; T/C (dose: 778.0 micrograms/kg/injection, schedule: Q04DX003 (ip), vehicle: saline): 120 % of control; T/C (dose: 1300.0 micrograms/kg/injection, schedule: Q04DX003 (ip), vehicle: saline): 120 % of control; T/C (dose: 2160.0 micrograms/kg/injection, schedule: Q04DX003 (ip), vehicle: saline): 124 % of control; T/C (dose: 3600.0 micrograms/kg/injection, schedule: Q04DX003 (ip), vehicle: saline): 118 % of control

Question: Which results are given for `CCCCCCCCCCCCCCCCNCCCS(=O)(=O)O`?
Answer: T/C (dose: 6.25 mg/kg/injection, schedule: Q01DX009 (ip), vehicle: saline with Tween-80): 96 % of control; T/C (dose: 6.25 mg/kg/injection, schedule: Q01DX009 (ip), vehicle: saline): 103 % of control; T/C (dose: 12.5 mg/kg/injection, schedule: Q01DX009 (ip), vehicle: saline with Tween-80): 107 % of control; T/C (dose: 12.5 mg/kg/injection, schedule: Q01DX009 (ip), vehicle: saline): 100 % of control; T/C (dose: 25.0 mg/kg/injection, schedule: Q01DX009 (ip), vehicle: saline): 100 % of control; T/C [10]: 103 % of control; T/C (dose: 50.0 mg/kg/injection, schedule: Q01DX009 (ip), vehicle: saline): 103 % of control

Question: Which results are given for `Cc1nc2ccccc2c2c(N)cccc12`?
Answer: T/C (dose: 25.0 mg/kg/injection, schedule: Q01DX005 (ip), vehicle: Klucel (hydroxypropylcellulose) (HPC)): 105 % of control; T/C [13]: 102 % of control; T/C [14]: 98 % of control; T/C [15]: 105 % of control

Question: With `C(=C\c1ccccc1)/c1ccccc1` as the molecule, how does the T/C (dose: 6.25 mg/kg/injection, schedule: Q01DX005 (ip), vehicle: saline) read?
Answer: 100 % of control

Question: What about the T/C [11] of the same molecule?
Answer: 109 % of control

Question: And the T/C [12]?
Answer: 94 % of control

Question: How did the T/C [13] turn out when `CCOC(=O)C1=C(C)/C(=C/c2[n-]c(Cl)c(C)c2C(=O)OCC)N=C1C.CCOC(=O)C1=C(C)/C(=C/c2[n-]c(Cl)c(C)c2C(=O)OCC)N=C1C.[Ni+2]` was run?
Answer: 102 % of control

Question: What about the T/C [14] of the same molecule?
Answer: 114 % of control

Question: And the T/C [15]?
Answer: 102 % of control

Question: What does the source list for `COc1ccc(-c2cnc3c(N)nn(C)c3n2)cc1`?
Answer: T/C [7]: 90 % of control; T/C [8]: 100 % of control; T/C [9]: 105 % of control

Question: `CC(=O)N=c1ccc2nc3c(cc(N)c4ccccc43)oc-2c1` was tested. Which T/C (dose: 10.0 mg/kg/injection, schedule: Q01DX005 (ip), vehicle: Klucel (hydroxypropylcellulose) (HPC)) did it give?
Answer: 98 % of control

Question: And the T/C (dose: 20.0 mg/kg/injection, schedule: Q01DX005 (ip), vehicle: Klucel (hydroxypropylcellulose) (HPC))?
Answer: 100 % of control

Question: What about the T/C (dose: 40.0 mg/kg/injection, schedule: Q01DX005 (ip), vehicle: Klucel (hydroxypropylcellulose) (HPC)) of the same molecule?
Answer: 98 % of control

Question: Which results are given for `C/C=C1\C(=O)O[C@@]23C=C[C@H]4C(C(=O)OC)=CO[C@@H](O[C@H]12)[C@H]43`?
Answer: T/C (dose: 0.63 mg/kg/injection, schedule: Q01DX009 (ip), vehicle: Klucel (hydroxypropylcellulose) (HPC)): 100 % of control; T/C (dose: 0.63 mg/kg/injection, schedule: Q01DX009 (ip), vehicle: saline): 98 % of control; T/C (dose: 1.25 mg/kg/injection, schedule: Q01DX009 (ip), vehicle: Klucel (hydroxypropylcellulose) (HPC)): 100 % of control; T/C (dose: 1.25 mg/kg/injection, schedule: Q01DX009 (ip), vehicle: saline): 98 % of control; T/C (dose: 2.5 mg/kg/injection, schedule: Q01DX009 (ip), vehicle: Klucel (hydroxypropylcellulose) (HPC)): 98 % of control; T/C (dose: 2.5 mg/kg/injection, schedule: Q01DX009 (ip), vehicle: saline): 100 % of control; T/C (dose: 5.0 mg/kg/injection, schedule: Q01DX009 (ip), vehicle: Klucel (hydroxypropylcellulose) (HPC)): 100 % of control; T/C (dose: 5.0 mg/kg/injection, schedule: Q01DX009 (ip), vehicle: saline): 98 % of control; T/C (dose: 10.0 mg/kg/injection, schedule: Q01DX009 (ip), vehicle: saline): 104 % of control; T/C (dose: 20.0 mg/kg/injection, schedule: Q01DX009 (ip), vehicle: saline): 113 % of control
